Results as given in patent US20250269043A1, “TARGETED BIFUNCTIONAL DEGRADERS” (YALE UNIVERSITY, priority 2019, published 2025).
Each block holds one compound with its values, some of them ahead of it. Square brackets hold non-standard residues; d marks the D form. Peptide text beside a SMILES is read from it. * marks the point of attachment. Sta = CC(C)C[C@H](N)[C@@H](O)CC(=O)O; Isovaleryl = CC(C)CC(=O)*

What was measured:
human MIF = target: T1, human MIF (Homo sapiens, UniProt P14174); experiment: Depletion of human MIF from cell culture supernatant (sandwich ELISA); format: cell-based; conditions: for depletion of MIF from cell culture supernatant, optimized ASGPR-binding motifs / depletion of human MIF from cell culture supernatant: human MIF 100 nM; for depletion of MIF from cell culture supernatant, optimized ASGPR-binding motifs: MIF-AF2 at 40 nM, 200 nM and 1 μM; for depletion of human MIF from cell culture supernatant: FIG. 128A
T1 sequence (P14174 2-115 limits assumed): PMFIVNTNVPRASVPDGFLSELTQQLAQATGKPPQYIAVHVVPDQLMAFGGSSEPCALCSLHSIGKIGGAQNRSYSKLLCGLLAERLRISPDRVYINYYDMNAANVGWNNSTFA
Description: The ability of bifunctional MIF-binding molecules to mediate the depletion of human MIF from cell culture was investigated. In these assays, human MIF was present at a concentration of 100 nM, and a sandwich ELISA assay was utilized to measure the concentration of human MIF remaining in the cell culture supernatant. The closely related bifunctional molecules MIF-GN3, MIF-PEG2-GN3, and MIF-PEG4-GN3 were used, as well as the structurally dissimilar molecule MIF-NVS-PEG3-GN3. […] Based on the ease of its synthesis and its efficacy in this experiment, MIF-GN3 was utilized for further studies. It was next investigated whether the MIF inhibitor 3w mediates MIF depletion from cell culture supernatant. […] When cells were treated with 3w, no depletion of exogenous MIF protein was observed after 24 hours (FIG. 128B).
Bifunctional molecules containing optimized ASGPR-binding motifs are also capable of mediating MIF depletion from cell culture supernatant (FIG. 129). The MIF-binding molecule MIF-AF1, which contains only a single ASGPR-binding sugar, was not effective at mediating depletion of MIF from supernatant at any concentration tested. It is hypothesized that this is due to the compound's low predicted affinity for ASGPR (μM range). […] At a concentration of either 200 nM or 1 μM, MIF-AF2 mediated nearly 100%/o depletion of MLF from the cell culture supernatant after 48 hours. […] In contrast to these molecules, which utilize optimized synthetic ASGPR ligands, the GalNAc-based molecule MIF-GN3 mediated only 67.0% and 56.0% removal of MIF from supernatant after 48 hours at concentrations of 1 μM and 200 nM, respectively. […] At a concentration of 40 nM (4.0 pmol of molecule), MIF-AF3 mediates the removal of 83.2% of MIF present in the cell culture supernatant, or 8.32 pmol of human MIF protein. Therefore, it was concluded that under the conditions of this experiment, MIF-AF3 mediates the depletion of 2.08 molar equivalents of MIF protein.

HepG2 cells [1] = experiment: Effect of protease inhibitors on degradation of endocytosed α-DNP antibody in HepG2 cells (50 kDa/25 kDa band ratio); conditions: for inhibition of α-DNP antibody degradation (triplicate): 12 hours, each concentration in triplicate, ALLN 100 and 10 μM, FIG. 117; for inhibition of α-DNP antibody degradation (initial screening): leupeptin 20 and 80 μM, E64 50 and 10 μM, antipain 50 and 100 μM, aprotinin 400 or 800 nM, PMSF 100 or 500 μM, AEBSF 10 μM, ALLN 10 μM, FIG. 116
Description: The ratiometric comparison of band intensity at 50 kDa divided by the intensity of the 25 kDa was used as a measure of α-DNP antibody degradation. As endocytosed α-DNP antibody is degraded in cells, this ratio decreases. […] Each ratiometric measurement is produced using only the protein fragments present in the cell lysate.
Protease inhibitors which inhibit α-DNP antibody degradation are expected to cause an accumulation of fluorescent intensity at 50 kDa and a decrease in fluorescent intensity at 25 kDa.
Next it was studied whether the inhibition of α-DNP antibody degradation by protease inhibitors was reproducible. Each protease inhibitor concentration was tested in triplicate in HepG2 cells (FIG. 117).
Pepstatin at a concentration 15 μM was included as a negative control.

HepG2 cells [2] = experiment: DNP-GN3-mediated endocytosis of fluorescently labeled α-DNP antibody by adherent HepG2 cells; format: cell-based, human; conditions: sodium azide and 2-deoxyglucose as combined treatment; FIG. 89
Description: It was next explored whether DNP-GN3 mediates the endocytosis of fluorescently labeled α-DNP antibody.
To explore the cellular mechanism of antibody uptake, cells were treated with chemical inhibitors of several endocytic pathways (FIG. 89).

HepG2 cells [3] = experiment: MIF-GN3-mediated endocytosis of Alexa 488-labeled human MIF by HepG2 cells; conditions: for effect of endocytic pathway inhibitors on MIF-GN3-mediated MIF endocytosis: MIF 100 nM, MIF-GN3 200 nM, FIG. 132
Description: Human MIF protein was fluorescently labeled with Alexa 488 NHS ester, then incubated with HepG2 cells in the presence of varying levels of MIF-GN3.
The ability of MIF-GN3 to mediate MIF endocytosis over a wide range of target protein concentrations was assessed.
Next, inhibitors of various endocytic pathways were utilized to determine if MIF-GN3 mediates MIF endocytosis in a manner consistent with ASGPR (FIG. 132).

α-DNP antibody = experiment: In vivo depletion of α-DNP antibody from serum in mice (ELISA); conditions: i.p. injection; FIG. 79A
Description: FIG. 94 illustrates that serum levels of α-DNP antibody decrease more rapidly following repeated treatment with DNP-GN3. Serum antibody levels were measured using an ELISA assay. Each experimental group contained three mice. Statistical differences in experiments involving in vivo depletion of α-DNP antibody were assessed by repeated measures two-way ANOVA with Tukey's tests for post-hoc comparison of simple effects between each of the treatment groups and PBS.
Single doses of DNP-GN3 were also found to be efficacious at mediating α-DNP antibody depletion, albeit less effectively than daily dosing (FIG. 96). […] Therefore, it was concluded that DNP-GN3 is able to mediate the depletion of a monoclonal antibody from serum, and functions across a wide range of target protein concentrations and dosing regimens.
DNP-GN3 was also found to be efficacious in depleting polyclonal α-DNP antibody from serum collected from mice immunized with DNP-keyhole limpet haemocyanin (KLH) (FIG. 97). […] Thus, the small molecule DNP-GN3 is not restricted in function to only monoclonal mouse antibodies, but is also effective at removing polyclonal α-DNP antibodies from circulation in mice.

depletion of MIF from the cell culture supernatant (human MIF; 200 nM or 1 μM, after 48 hours, FIG. 129): ~100%
depletion of MIF from cell culture supernatant, optimized ASGPR-binding motifs (human MIF; FIG. 129): effective
Compound: O=C(CCOCC(COCCC(=O)NCCOCCOCCOCCOC[C@]12CO[C@H](O1)[C@H](NC(=O)C(F)(F)F)[C@@H](O)[C@H]2O)NC(=O)CCCOc1ccc2nc(-c3cn(-c4ccc(O)c(F)c4)nn3)ccc2c1)NCCOCCOCCOCCOC[C@]12CO[C@H](O1)[C@H](NC(=O)C(F)(F)F)[C@@H](O)[C@H]2O [MIF-AF2]

Compound: CC(C)CC(=O)N[C@H](C(=O)N[C@H](C(=O)N[C@@H](CC(C)C)[C@@H](O)CC(=O)N[C@@H](C)C(=O)N[C@@H](CC(C)C)[C@@H](O)CC(=O)O)C(C)C)C(C)C [Pepstatin] (Isovaleryl-VV[Sta]A[Sta]-OH)
inhibition of α-DNP antibody degradation (triplicate) (HepG2 cells [1]): did not significantly inhibit
inhibition of α-DNP antibody degradation (initial screening) (HepG2 cells [1]): not effective

Compound: CC(=O)N[C@@H](CC(C)C)C(=O)N[C@@H](CC(C)C)C(=O)N[C@H](C=O)CCCNC(=N)N [leupeptin, Leupeptin]
inhibition of α-DNP antibody degradation (triplicate) (HepG2 cells [1]): shown to inhibit
inhibition of α-DNP antibody degradation (initial screening) (HepG2 cells [1]): effective

depletion of human MIF from cell culture supernatant (human MIF; 24 hours): effective
Compound: CC(=O)NC1C(OCCOCCOCCNC(=O)CCOCC(COCCC(=O)NCCOCCOCCOC2OC(CO)C(O)C(O)C2NC(C)=O)(COCCC(=O)NCCOCCOCCOC2OC(CO)C(O)C(O)C2NC(C)=O)NC(=O)CNC(=O)COCCOCCOCCn2cc(COCCOCCOc3ccc(N4Cc5ccc(O)cc5OC4=O)cc3)nn2)OC(CO)C(O)C1O (stereo not drawn) [MIF-NVS-PEG3-GN3]

Compound: Aprotinin
inhibition of α-DNP antibody degradation (triplicate) (HepG2 cells [1]): did not significantly inhibit
inhibition of α-DNP antibody degradation (initial screening) (HepG2 cells [1]): not effective

depletion of MIF from cell culture supernatant, optimized ASGPR-binding motifs (human MIF; FIG. 129): not effective
Compound: O=C(CCCOc1ccc2nc(-c3cn(-c4ccc(O)c(F)c4)nn3)ccc2c1)NCCOCCC(=O)NCCOCCOCCOCCOC[C@]12CO[C@H](O1)[C@H](NC(=O)C(F)(F)F)[C@@H](O)[C@H]2O [MIF-AF1]

Compound: CC[C@@]1([C@@H]2O[C@@H]([C@H]3O[C@@](O)(CO)[C@H](C)C[C@@H]3C)C[C@@H]2C)CC[C@H]([C@]2(C)CC[C@]3(C[C@H](O)[C@@H](C)[C@@H]([C@@H](C)[C@@H](OC)[C@H](C)C(=O)O)O3)O2)O1 [monensin, Monensin]
effect of endocytic pathway inhibitors on intracellular fluorescence (DNP-GN3-mediated uptake) (HepG2 cells [2]): significantly decreased
effect of endocytic pathway inhibitors on MIF-GN3-mediated MIF endocytosis (HepG2 cells [3]): near background levels

Compound: CCN(CC)CCCC(C)Nc1ccnc2cc(Cl)ccc12 (stereo not drawn) [chloroquine, Chloroquine]
effect of endocytic pathway inhibitors on intracellular fluorescence (DNP-GN3-mediated uptake) (HepG2 cells [2]): significantly decreased
effect of endocytic pathway inhibitors on MIF-GN3-mediated MIF endocytosis (HepG2 cells [3]): near background levels

Compound: CO/C1=C\C(C)=C\[C@@H](C)[C@@H](O)[C@@H](C)C/C(C)=C/C=C/[C@H](OC)[C@@H]([C@@H](C)[C@@H](O)[C@H](C)[C@@]2(O)C[C@@H](O)[C@H](C)[C@@H](C(C)C)O2)OC1=O [bafilomycin, Bafilomycin]
effect of endocytic pathway inhibitors on intracellular fluorescence (DNP-GN3-mediated uptake) (HepG2 cells [2]): significantly decreased
effect of endocytic pathway inhibitors on MIF-GN3-mediated MIF endocytosis (HepG2 cells [3]): near background levels

Compound: C=C1[C@@H](C)[C@H]2[C@H](Cc3ccccc3)NC(=O)[C@]23[C@H](OC(C)=O)/C=C/[C@@](C)(O)C(=O)[C@@H](C)C/C=C/[C@H]3[C@@H]1O [cytochalasin D]
effect of endocytic pathway inhibitors on intracellular fluorescence (DNP-GN3-mediated uptake) (HepG2 cells [2]): did not significantly decrease
toxicity of endocytosis inhibitors to cells (HepG2 cells [3]; HepG2 cells in the presence of MIF and MIF-GN3): toxic

Compound: O=C(CCOCC(COCCC(=O)NCCOCCOCCO)(COCCC(=O)NCCOCCOCCO)NC(=O)CNC(=O)COCCOCCOCCNc1ccc([N+](=O)[O-])cc1[N+](=O)[O-])NCCOCCOCCO [DNP-(OH)3]
degradation of injected anti-DNP IgG antibodies in mouse serum (α-DNP antibody): did not show such effect

Compound: CC(C)C[C@H](NC(=O)[C@H]1O[C@@H]1C(=O)O)C(=O)NCCCCN=C(N)N [Compound E64, E64]
inhibition of α-DNP antibody degradation (triplicate) (HepG2 cells [1]): shown to inhibit
inhibition of α-DNP antibody degradation (initial screening) (HepG2 cells [1]): effective

Compound: Cl.N [ammonium chloride, NH4Cl]
effect of endocytic pathway inhibitors on MIF-GN3-mediated MIF endocytosis (HepG2 cells [3]): near background levels

Compound: Cl.NCCc1ccc(S(=O)(=O)F)cc1 [AEBSF, 4-(2-aminoethyl)benzeneulfonyl fluoride hydrochloride]
inhibition of α-DNP antibody degradation (triplicate) (HepG2 cells [1]): did not significantly inhibit
toxicity to cells (HepG2 cells [1]; HepG2 cells, pepstatin 5 μM after 24 hours, AEBSF 100 μM, ALLN 100 μM by 24 hours): toxic
inhibition of α-DNP antibody degradation (initial screening) (HepG2 cells [1]): not effective

Compound: CC(C)C[C@H](NC(=O)[C@@H](O)[C@H](N)Cc1ccccc1)C(=O)O [Bestatin]
inhibition of α-DNP antibody degradation (triplicate) (HepG2 cells [1]): did not significantly inhibit
inhibition of α-DNP antibody degradation (initial screening) (HepG2 cells [1]): not effective

Compound: O=S(=O)(F)Cc1ccccc1 [PMSF, Phenylmethylsulfonyl fluoride]
inhibition of α-DNP antibody degradation (triplicate) (HepG2 cells [1]): did not significantly inhibit
inhibition of α-DNP antibody degradation (initial screening) (HepG2 cells [1]): not effective

depletion of human MIF from cell culture supernatant (human MIF; 24 hours): effective
Compound: CC(=O)NC1C(OCCOCCOCCNC(=O)CCOCC(COCCC(=O)NCCOCCOCCOC2OC(CO)C(O)C(O)C2NC(C)=O)(COCCC(=O)NCCOCCOCCOC2OC(CO)C(O)C(O)C2NC(C)=O)NC(=O)CNC(=O)COCCOCCOCCOCCNC(=O)CCCOc2ccc3nc(-c4cn(-c5ccc(O)c(F)c5)nn4)ccc3c2)OC(CO)C(O)C1O (stereo not drawn) [MIF-PEG4-GN3]

amount of human MIF protein removed (human MIF; 40 nM (4.0 pmol of molecule)): 8.32 pmol
Compound: O=C(CCOCC(COCCC(=O)NCCOCCOCCOCCOC[C@]12CO[C@H](O1)[C@H](NC(=O)C(F)(F)F)[C@@H](O)[C@H]2O)(COCCC(=O)NCCOCCOCCOCCOC[C@]12CO[C@H](O1)[C@H](NC(=O)C(F)(F)F)[C@@H](O)[C@H]2O)NC(=O)CCCOc1ccc2nc(-c3cn(-c4ccc(O)c(F)c4)nn3)ccc2c1)NCCOCCOCCOCCOC[C@]12CO[C@H](O1)[C@H](NC(=O)C(F)(F)F)[C@@H](O)[C@H]2O [MIF-AF3]

depletion of human MIF from cell culture supernatant (human MIF; 24 hours): effective
Compound: CC(=O)NC1C(OCCOCCOCCNC(=O)CCOCC(COCCC(=O)NCCOCCOCCOC2OC(CO)C(O)C(O)C2NC(C)=O)(COCCC(=O)NCCOCCOCCOC2OC(CO)C(O)C(O)C2NC(C)=O)NC(=O)CNC(=O)COCCOCCNC(=O)CCCOc2ccc3nc(-c4cn(-c5ccc(O)c(F)c5)nn4)ccc3c2)OC(CO)C(O)C1O (stereo not drawn) [MIF-PEG2-GN3]
depletion of exogenous MIF protein from cell culture supernatant (human MIF; 24 hours, FIG. 128B): mediated MIF depletion across a range of concentrations
